The text below walks through data of US20220144809A1, “COMPOUNDS AND METHODS FOR THE TARGETED DEGRADATION OF ANDROGEN RECEPTOR AND ASSOCIATED METHODS OF USE” (Arvinas Operations, Inc., priority 2020, published 2022).

The experiment concerns Androgen Receptor (AR). The experiment can be described thus: Androgen Receptor ELISA assay (AR degradation in LNCaP and/or VCaP cells). It is filed as cell-based. The conditions noted are these: degradation of AR, 5 hours incubation, R1881 in media. The protocol: Assay for Testing AR Degradation Driven by Compounds of the Present Disclosure.
Androgen Receptor ELISA Assay. Compounds were evaluated in the following assay in LNCaP and/or VCaP cells utilizing similar protocols. The protocols used with VCaP cells are described below. The androgen receptor ELISA assay was performed using PathScan AR Sandwich ELISA (Cell Signaling Catalog#12850) according to the following assay steps.
VCaP cells were seeded at 40,000 cells/well at a volume of 100 μL/well in VCaP assay medium [Phenol red free RPMI (Gibco Cat#11835-030); 5% Charcoal Stripped (Dextran treated) FBS (Omega Scientific, Cat#FB-04); 1% penstrep (Life Technologies, Gibco Cat#: 10378-016)] in Corning 3904 plates. The cells were grown for a minimum of 3 days.
First, cells were dosed with compounds diluted in […]—in a polypropylene plate avoiding the use of outer columns according to the following protocol: (1)(i) 1000× stock plate in DMSO was made; (ii) 20 mM stock diluted 1/6.7 with DMSO (5 μL+28.3 μL DMSO)=3 mM into row H; (iii) serial dilutions in ½ log doses (10 μL of bifunctional compound+20 μL DMSO) was performed from row H towards row B with row A being reserved for DMSO; (iv) 7 doses total (final concentration in this 1000× plate will be 3 mM, 1 mM, 333 μM, 111 μM, etc). (2)(i) A 10× stock plate in media was made; (ii) 2.5 μL of the 1000× stock was trasnferred to a new 10× stock plate (use 12 channel pipet, start at A (DMSO control) work thru H. When 247.5 μL of media was added to this plate, it served as a 10× stock; (iii) made media+1 nM R1881 for making 10× stock plate; (iv) added 247.5 μL of media with 1 nM R1881 to each well of the 10× stock plate, mix.
Then 22 μL of 10× stock was added to cells and incubated for 5 hours. 1× Cell Signaling Cell lysis buffer was made (Catalogue #9803; comes with the kit) to have […], and was kept on ice. Media was aspirated, and 100 μL 1× cell lysis buffer/well was added. The cells were placed on a shaker located in a cold room for 10 minutes and shaken at speed 7. The lysate mixture was mix and 20 μL transferred to 100 μl of Diluent in ELISA plate (0.15 μg/ml-0.075 μg/ml). The lysate-diluent mixture was store at 4° C. overnight on a shaker located in a cold room at speed 5 (gentle swirl).
The lysate-diluent mixture was shaken for 30 minutes at 37° C. The mouse AR antibody, anti-mouse antibody, TMB, and STOP solution were allowed to come to room temperature. The 1×ELISA buffer included in kit was made and loaded in reservoir. Media from the plate was discarded, the ELISA plate was tapped hard on paper towel, and washed 4×200 μl ELISA wash buffer using a plate washer for the first three washes and an eight channel aspirator for the fourth wash to more thoroughly aspirate the solution.
Next, 100 μL/well of mouse AR detection Ab was added; the plate was covered and shaken at 37° C. for 1 hour; media was discarded from the plates, the plates tapped on a paper towel and washed four times with 200 μL ELISA wash buffer with a plate washer for the first three washes and an eight channel aspirator for the fourth wash; 100 μL/well of anti-mouse—HRP conjugated Ab (comes with the kit) was added; the plates wascover and shaken at 37° C. for 30 minutes; the TMB reagent was allowed to come to room temperature; the media from the plate was discarded, the plates tapped on paper towel, and washed four times with 200 μL ELISA wash buffer with a plate washer for the first three washes and an eight channel aspirator for the fourth wash; plates were tapped on paper towl; 100 μL TMB was added to each well and the plate shaken for 2 minutes—while watching color. STOP solution (100 μL) was added when light blue color developed. The plates were shake and read at 450 nm.
Data was analyzed and plotted using GraphPad Prism software. Exemplary compounds of Table 1 were assayed and the data shown below in Table 2. […]

Consider `Cc1c(C#N)c(-c2ccc(C#N)cc2)c(C)n1Cc1ccc(OCCOCCOCCN2CCC(CN3CCN(c4ccc5c(c4)C(=O)N(C4CCC(=O)NC4=O)C5=O)CC3)CC2)cc1` (stereo not drawn) [Compound 21, 4-(4-cyanophenyl)-1-(4-(2-(2-(2-(4-((4-(2-(2,6-dioxopiperidin-3-yl)-1,3-dioxoisoindolin-5-yl)piperazin-1-yl)methyl)piperidin-1-yl)ethoxy)ethoxy)ethoxy)benzyl)-2,5-dimethyl-1H-pyrrole-3-carbonitrile], for which the DC50 (in general, the midpoint of the concentration-degradation curve) was ≥ 0.1 µM and the “Dmax Code” value is “C (C<50)”.
Regarding `CC(C)N(CC1CCN(c2ccc(CCn3c(=O)n(-c4ccc(C#N)c(C(F)(F)F)c4)c4ccccc43)cc2)CC1)[C@H]1C[C@H](Oc2ccc3c(c2)C(=O)N(C2CCC(=O)NC2=O)C3=O)C1` (stereo partly drawn) [Compound 17, 4-(3-(4-(4-((((1r,3r)-3-((2-(2,6-dioxopiperidin-3-yl)-1,3-dioxoisoindolin-5-yl)oxy)cyclobutyl)(isopropyl)amino)methyl)piperidin-1-yl)phenethyl)-2-oxo-2,3-dihydro-1H-benzo[d]imidazol-1-yl)-2-(trifluoromethyl)benzonitrile], the DC50 fell in the range of 0.01 to 0.1 µM and the “Dmax Code” value is “C (C<50)”.
Taken in the same sequence, the figures for `CC(C)N(CC1CCN(Cc2ccc(-n3c(=O)n(-c4ccc(C#N)c(C(F)(F)F)c4)c4ccccc43)cc2)CC1)[C@H]1C[C@H](Oc2ccc3c(c2)C(=O)N(C2CCC(=O)NC2=O)C3=O)C1` (stereo partly drawn) [Compound 15, 4-(3-(4-((4-((((1r,3r)-3-((2-(2,6-dioxopiperidin-3-yl)-1,3-dioxoisoindolin-5-yl)oxy)cyclobutyl)(isopropyl)amino)methyl)piperidin-1-yl)methyl)phenyl)-2-oxo-2,3-dihydro-1H-benzo[d]imidazol-1-yl)-2-(trifluoromethyl)benzonitrile] were 0.001 to 0.01 µM and “C (C<50)”.
Taken in the same sequence, the figures for `N#Cc1ccc(N2C(=O)C3(CCC3)N(c3ccc(N4CCC(CN5CCN(c6ccc7c(c6)C(=O)N(C6CCC(=O)NC6=O)C7=O)CC5)CC4)c(F)c3)C2=S)cc1Cl` (stereo not drawn) [Compound 5, 2-chloro-4-(5-(4-(4-((4-(2-(2,6-dioxopiperidin-3-yl)-1,3-dioxoisoindolin-5-yl)piperazin-1-yl)methyl)piperidin-1-yl)-3-fluorophenyl)-8-oxo-6-thioxo-5,7-diazaspiro[3.4]octan-7-yl)benzonitrile] were < 0.001 µM and “A (A≥70)”.
For `COc1cc(N2C(=O)C3(CCC3)N(c3ccc(N4CCC(CN5CCN(c6ccc7c(c6)C(=O)N(C6CCC(=O)NC6=O)C7=O)CC5)CC4)c(F)c3)C2=S)ccc1C#N` (stereo not drawn) [Compound 6, 4-(5-(4-(4-((4-(2-(2,6-dioxopiperidin-3-yl)-1,3-dioxoisoindolin-5-yl)piperazin-1-yl)methyl)piperidin-1-yl)-3-fluorophenyl)-8-oxo-6-thioxo-5,7-diazaspiro[3.4]octan-7-yl)-2-methoxybenzonitrile], in that order: 0.001 to 0.01 µM and “A (A≥70)”.
As for `Cc1c(C#N)c(-c2ccc(C#N)cc2)c(C)n1Cc1ccc(OCCCN2CCC(CN3CCN(c4ccc5c(c4)C(=O)N(C4CCC(=O)NC4=O)C5=O)CC3)CC2)cc1` (stereo not drawn) [Compound 19, 4-(4-cyanophenyl)-1-(4-(3-(4-((4-(2-(2,6-dioxopiperidin-3-yl)-1,3-dioxoisoindolin-5-yl)piperazin-1-yl)methyl)piperidin-1-yl)propoxy)benzyl)-2,5-dimethyl-1H-pyrrole-3-carbonitrile], the DC50 was ≥ 0.1 µM and the “Dmax Code” value was “C (C<50)”.
